Results published in patent publication US20060160810A1, “2-Alkoxyphenyl substituted imidazotriazinones” (priority 2001, published 2006).

What follows are compounds tested against T1, human recombinant PDE5 (Homo sapiens, UniProt O76074) (assay: Phosphodiesterase [3H] cGMP-SPA enzyme assay (inhibition of PDE5 in vitro)). Conditions: human recombinant PDE5 expressed in a bacculovirus system; substance concentration at which the reaction rate is reduced by 50%; read-out: PDE V IC50.
T1 construct: made in house
Assay type: biochemical
Protocol: To test the inhibiting action, the “Phosphodiesterase [^3H] cGMP-SPA enzyme assay” from Amersham Life Science was used. The test was carried out according to the manufacturer's test protocol. Use was made of human recombinant PDE5 which was expressed in a bacculovirus system. The substance concentration at which the reaction rate is reduced by 50% was measured.

IC50 [nM]	SMILES
4.2	CCCc1nc(C)c2c(=O)[nH]c(-c3cc(S(=O)(=O)N4CCNCC4)ccc3OCC)nn12 [Example 1, 2-[2-Ethoxy-5-(1-piperazinylsulphonyl)phenyl]-5-methyl-7-propylimidazo-[5,1-f]-1,2,4-triazin-4(3H)-one]
2.4	CCCc1nc(C)c2c(=O)[nH]c(-c3cc(S(=O)(=O)NCCN)ccc3OCC)nn12 [Example 4, N-(2-aminoethyl)-4-ethoxy-3-(5-methyl-4-oxo-7-propyl-3,4-dihydroimidazo[5,1-f]-1,2,4-triazin-2-yl)benzenesulphonamide]
19	CCCc1nc(C)c2c(=O)[nH]c(-c3cc(S(=O)(=O)N4CC[N+]([O-])(CC)CC4)ccc3OCC)nn12 [Example 2, 2-{2-Ethoxy-5-[(4-ethyl-4-hydroxy-4λ^5-piperazin-1-yl)sulphonyl]phenyl}-5-methyl-7-propylimidazo[5,1-f]-1,2,4-triazin-4(3H)-one]
19	CCCc1nc(C)c2c(=O)[nH]c(-c3cc(S(=O)(=O)NCCNCC)ccc3OCC)nn12 [Example 3, 4-Ethoxy-N-[2-(ethylamino)ethyl]-3-(5-methyl-4-oxo-7-propyl-3,4-dihydroimidazo[5,1-f]-1,2,4-triazin-2-yl)benzenesulphonamide]
